# Experimental data published in the supplement of paper PMC10307832.
# Key:
# Assay in all cases: relative viability (nuclei count vs DMSO), 5 days (fraction); higher = more cells survive
# Selisistat + Vorinostat = compound: C1CC(C2=C(C1)C3=C(N2)C=CC(=C3)Cl)C(=O)N [Selisistat] + O=C(CCCCCCC(=O)Nc1ccccc1)NO [Vorinostat] (partner 1 µM)
# In short: (§1)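 Lung cancer cell lines, seeded in 1536-well plates, were treated the following day by pin tool with a single drug or with five library-drug doses (not always all listed) in √10 steps on top of a fixed anchor-drug dose. Cells were fixed and nuclei stained in one step after 5 days, and nuclei were counted. Relative viability is the nuclei count for treated wells divided by that for vehicle wells, reported as medians of duplicate plates.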
# Serdemetan + Tozasertib = compound: c1ccc2c(CCNc3ccc(Nc4ccncc4)cc3)c[nH]c2c1 [Serdemetan] + Cc1cc(Nc2cc(N3CCN(C)CC3)nc(Sc3ccc(NC(=O)C4CC4)cc3)n2)n[nH]1 [Tozasertib] (partner 0.1 µM)
# In short: as §1
# Serdemetan + Olaparib = compound: c1ccc2c(CCNc3ccc(Nc4ccncc4)cc3)c[nH]c2c1 [Serdemetan] + O=C(c1cc(Cc2n[nH]c(=O)c3ccccc23)ccc1F)N1CCN(C(=O)C2CC2)CC1 [Olaparib] (partner 8 µM)
# In short: as §1
# Serdemetan + Luminespib = compound: c1ccc2c(CCNc3ccc(Nc4ccncc4)cc3)c[nH]c2c1 [Serdemetan] + CCNC(=O)c1noc(-c2cc(C(C)C)c(O)cc2O)c1-c1ccc(CN2CCOCC2)cc1 [Luminespib] (partner 0.01 µM)
# In short: as §1
cell line,measurement,setting,value
NCI-H1993,relative viability,Selisistat + Vorinostat; first compound 0.4 µM,0.969
same,relative viability,Selisistat + Vorinostat; first compound 1.265 µM,0.782
same,relative viability,Selisistat + Vorinostat; first compound 12.65 µM,0.848
same,relative viability,Selisistat + Vorinostat; first compound 40 µM,0.949
same,relative viability,Serdemetan + Tozasertib; first compound 0.04 µM,0.578
same,relative viability,Serdemetan + Tozasertib; first compound 0.1265 µM,0.579
same,relative viability,Serdemetan + Tozasertib; first compound 0.4 µM,0.592
same,relative viability,Serdemetan + Tozasertib; first compound 1.265 µM,0.568
same,relative viability,Serdemetan + Tozasertib; first compound 4 µM,0.562
same,relative viability,Serdemetan + Olaparib; first compound 0.04 µM,0.982
same,relative viability,Serdemetan + Olaparib; first compound 0.1265 µM,0.969
same,relative viability,Serdemetan + Olaparib; first compound 0.4 µM,1.18
same,relative viability,Serdemetan + Olaparib; first compound 1.265 µM,1.01
same,relative viability,Serdemetan + Olaparib; first compound 4 µM,0.778
same,relative viability,Serdemetan + Luminespib; first compound 0.04 µM,0.981
same,relative viability,Serdemetan + Luminespib; first compound 0.1265 µM,0.778
same,relative viability,Serdemetan + Luminespib; first compound 0.4 µM,0.811
same,relative viability,Serdemetan + Luminespib; first compound 1.265 µM,0.768
same,relative viability,Serdemetan + Luminespib; first compound 4 µM,0.758
NCI-H322M,relative viability,Selisistat + Vorinostat; first compound 0.4 µM,0.857
same,relative viability,Selisistat + Vorinostat; first compound 1.265 µM,0.921
same,relative viability,Selisistat + Vorinostat; first compound 12.65 µM,0.893
same,relative viability,Selisistat + Vorinostat; first compound 40 µM,1.02
same,relative viability,Serdemetan + Tozasertib; first compound 0.04 µM,0.447
same,relative viability,Serdemetan + Tozasertib; first compound 0.1265 µM,0.457
same,relative viability,Serdemetan + Tozasertib; first compound 0.4 µM,0.484
same,relative viability,Serdemetan + Tozasertib; first compound 1.265 µM,0.35
same,relative viability,Serdemetan + Tozasertib; first compound 4 µM,0.437
same,relative viability,Serdemetan + Olaparib; first compound 0.04 µM,0.667
same,relative viability,Serdemetan + Olaparib; first compound 0.1265 µM,0.757
same,relative viability,Serdemetan + Olaparib; first compound 0.4 µM,0.729
same,relative viability,Serdemetan + Olaparib; first compound 1.265 µM,0.469
same,relative viability,Serdemetan + Olaparib; first compound 4 µM,0.655
same,relative viability,Serdemetan + Luminespib; first compound 0.04 µM,0.807
same,relative viability,Serdemetan + Luminespib; first compound 0.1265 µM,0.845
same,relative viability,Serdemetan + Luminespib; first compound 0.4 µM,0.772
same,relative viability,Serdemetan + Luminespib; first compound 1.265 µM,0.861
same,relative viability,Serdemetan + Luminespib; first compound 4 µM,0.678
NCI-H838,relative viability,Selisistat + Vorinostat; first compound 0.4 µM,0.721
same,relative viability,Selisistat + Vorinostat; first compound 1.265 µM,0.806
same,relative viability,Selisistat + Vorinostat; first compound 4 µM,0.81
same,relative viability,Selisistat + Vorinostat; first compound 12.65 µM,0.764
same,relative viability,Selisistat + Vorinostat; first compound 40 µM,0.773
same,relative viability,Serdemetan + Tozasertib; first compound 0.04 µM,0.282
same,relative viability,Serdemetan + Tozasertib; first compound 0.1265 µM,0.246
same,relative viability,Serdemetan + Tozasertib; first compound 0.4 µM,0.234
same,relative viability,Serdemetan + Tozasertib; first compound 1.265 µM,0.231
same,relative viability,Serdemetan + Tozasertib; first compound 4 µM,0.232
same,relative viability,Serdemetan + Olaparib; first compound 0.04 µM,0.739
same,relative viability,Serdemetan + Olaparib; first compound 0.1265 µM,0.759
same,relative viability,Serdemetan + Olaparib; first compound 0.4 µM,0.671
same,relative viability,Serdemetan + Olaparib; first compound 1.265 µM,0.669
same,relative viability,Serdemetan + Olaparib; first compound 4 µM,0.874
same,relative viability,Serdemetan + Luminespib; first compound 0.04 µM,0.266
same,relative viability,Serdemetan + Luminespib; first compound 0.1265 µM,0.319
same,relative viability,Serdemetan + Luminespib; first compound 0.4 µM,0.383
same,relative viability,Serdemetan + Luminespib; first compound 1.265 µM,0.2
same,relative viability,Serdemetan + Luminespib; first compound 4 µM,0.328
HARA,relative viability,Selisistat + Vorinostat; first compound 0.4 µM,0.436
same,relative viability,Selisistat + Vorinostat; first compound 1.265 µM,0.552
same,relative viability,Selisistat + Vorinostat; first compound 4 µM,0.529
same,relative viability,Selisistat + Vorinostat; first compound 12.65 µM,0.756
same,relative viability,Selisistat + Vorinostat; first compound 40 µM,0.85
same,relative viability,Serdemetan + Tozasertib; first compound 0.04 µM,0.0876
same,relative viability,Serdemetan + Tozasertib; first compound 0.1265 µM,0.0858
same,relative viability,Serdemetan + Tozasertib; first compound 0.4 µM,0.0868
same,relative viability,Serdemetan + Tozasertib; first compound 1.265 µM,0.0805
same,relative viability,Serdemetan + Tozasertib; first compound 4 µM,0.0776
same,relative viability,Serdemetan + Olaparib; first compound 0.04 µM,0.875
same,relative viability,Serdemetan + Olaparib; first compound 0.1265 µM,0.892
same,relative viability,Serdemetan + Olaparib; first compound 0.4 µM,0.674
same,relative viability,Serdemetan + Olaparib; first compound 1.265 µM,0.476
same,relative viability,Serdemetan + Olaparib; first compound 4 µM,0.362
same,relative viability,Serdemetan + Luminespib; first compound 0.04 µM,0.767
same,relative viability,Serdemetan + Luminespib; first compound 0.1265 µM,0.604
same,relative viability,Serdemetan + Luminespib; first compound 0.4 µM,0.606
same,relative viability,Serdemetan + Luminespib; first compound 1.265 µM,0.303
same,relative viability,Serdemetan + Luminespib; first compound 4 µM,0.199
NCI-H2087,relative viability,Selisistat + Vorinostat; first compound 0.4 µM,0.897
same,relative viability,Selisistat + Vorinostat; first compound 1.265 µM,0.667
same,relative viability,Selisistat + Vorinostat; first compound 12.65 µM,0.422
same,relative viability,Selisistat + Vorinostat; first compound 40 µM,0.76
same,relative viability,Serdemetan + Tozasertib; first compound 0.04 µM,0.282
same,relative viability,Serdemetan + Tozasertib; first compound 0.1265 µM,0.237
same,relative viability,Serdemetan + Tozasertib; first compound 0.4 µM,0.308
same,relative viability,Serdemetan + Tozasertib; first compound 1.265 µM,0.202
same,relative viability,Serdemetan + Tozasertib; first compound 4 µM,0.2
same,relative viability,Serdemetan + Olaparib; first compound 0.04 µM,0.481
same,relative viability,Serdemetan + Olaparib; first compound 0.1265 µM,0.473
same,relative viability,Serdemetan + Olaparib; first compound 0.4 µM,0.433
same,relative viability,Serdemetan + Olaparib; first compound 1.265 µM,0.207
same,relative viability,Serdemetan + Olaparib; first compound 4 µM,0.217
same,relative viability,Serdemetan + Luminespib; first compound 0.04 µM,0.176
same,relative viability,Serdemetan + Luminespib; first compound 0.1265 µM,0.147
same,relative viability,Serdemetan + Luminespib; first compound 0.4 µM,0.168
same,relative viability,Serdemetan + Luminespib; first compound 1.265 µM,0.184
same,relative viability,Serdemetan + Luminespib; first compound 4 µM,0.123
NCI-H1437,relative viability,Selisistat + Vorinostat; first compound 0.4 µM,0.875
same,relative viability,Selisistat + Vorinostat; first compound 1.265 µM,0.837
same,relative viability,Selisistat + Vorinostat; first compound 4 µM,0.886
same,relative viability,Selisistat + Vorinostat; first compound 12.65 µM,0.876
same,relative viability,Selisistat + Vorinostat; first compound 40 µM,0.74
same,relative viability,Serdemetan + Tozasertib; first compound 0.04 µM,0.375
same,relative viability,Serdemetan + Tozasertib; first compound 0.1265 µM,0.399
same,relative viability,Serdemetan + Tozasertib; first compound 0.4 µM,0.383
same,relative viability,Serdemetan + Tozasertib; first compound 1.265 µM,0.331
same,relative viability,Serdemetan + Tozasertib; first compound 4 µM,0.285
same,relative viability,Serdemetan + Olaparib; first compound 0.04 µM,0.661
same,relative viability,Serdemetan + Olaparib; first compound 0.1265 µM,0.612
same,relative viability,Serdemetan + Olaparib; first compound 0.4 µM,0.62
same,relative viability,Serdemetan + Olaparib; first compound 1.265 µM,0.677
same,relative viability,Serdemetan + Olaparib; first compound 4 µM,0.537
same,relative viability,Serdemetan + Luminespib; first compound 0.04 µM,1.11
same,relative viability,Serdemetan + Luminespib; first compound 0.1265 µM,1
same,relative viability,Serdemetan + Luminespib; first compound 0.4 µM,1.06
same,relative viability,Serdemetan + Luminespib; first compound 1.265 µM,1.02
same,relative viability,Serdemetan + Luminespib; first compound 4 µM,0.788
NCI-H2342,relative viability,Selisistat + Vorinostat; first compound 0.4 µM,0.749
same,relative viability,Selisistat + Vorinostat; first compound 1.265 µM,0.646
same,relative viability,Selisistat + Vorinostat; first compound 4 µM,0.626
same,relative viability,Selisistat + Vorinostat; first compound 12.65 µM,0.899
same,relative viability,Selisistat + Vorinostat; first compound 40 µM,0.897
same,relative viability,Serdemetan + Tozasertib; first compound 0.04 µM,0.607
same,relative viability,Serdemetan + Tozasertib; first compound 0.1265 µM,0.553
same,relative viability,Serdemetan + Tozasertib; first compound 0.4 µM,0.605
same,relative viability,Serdemetan + Tozasertib; first compound 1.265 µM,0.493
same,relative viability,Serdemetan + Tozasertib; first compound 4 µM,0.408
same,relative viability,Serdemetan + Olaparib; first compound 0.04 µM,0.621
same,relative viability,Serdemetan + Olaparib; first compound 0.1265 µM,0.445
same,relative viability,Serdemetan + Olaparib; first compound 0.4 µM,0.416
same,relative viability,Serdemetan + Olaparib; first compound 1.265 µM,0.236
same,relative viability,Serdemetan + Olaparib; first compound 4 µM,0.334
same,relative viability,Serdemetan + Luminespib; first compound 0.04 µM,0.738
same,relative viability,Serdemetan + Luminespib; first compound 0.1265 µM,0.722
same,relative viability,Serdemetan + Luminespib; first compound 0.4 µM,0.704
same,relative viability,Serdemetan + Luminespib; first compound 1.265 µM,0.508
same,relative viability,Serdemetan + Luminespib; first compound 4 µM,0.506
ChaGo-K-1,relative viability,Selisistat + Vorinostat; first compound 0.4 µM,0.72
same,relative viability,Selisistat + Vorinostat; first compound 1.265 µM,0.728
same,relative viability,Selisistat + Vorinostat; first compound 4 µM,0.73
same,relative viability,Selisistat + Vorinostat; first compound 12.65 µM,0.729
same,relative viability,Selisistat + Vorinostat; first compound 40 µM,0.842
same,relative viability,Serdemetan + Tozasertib; first compound 0.04 µM,0.231
same,relative viability,Serdemetan + Tozasertib; first compound 0.1265 µM,0.232
same,relative viability,Serdemetan + Tozasertib; first compound 0.4 µM,0.2
same,relative viability,Serdemetan + Tozasertib; first compound 1.265 µM,0.178
same,relative viability,Serdemetan + Tozasertib; first compound 4 µM,0.167
same,relative viability,Serdemetan + Olaparib; first compound 0.04 µM,0.401
same,relative viability,Serdemetan + Olaparib; first compound 0.1265 µM,0.269
same,relative viability,Serdemetan + Olaparib; first compound 0.4 µM,0.258
same,relative viability,Serdemetan + Olaparib; first compound 1.265 µM,0.168
same,relative viability,Serdemetan + Olaparib; first compound 4 µM,0.257
same,relative viability,Serdemetan + Luminespib; first compound 0.04 µM,0.688
same,relative viability,Serdemetan + Luminespib; first compound 0.1265 µM,0.463
same,relative viability,Serdemetan + Luminespib; first compound 0.4 µM,0.445
same,relative viability,Serdemetan + Luminespib; first compound 1.265 µM,0.27
same,relative viability,Serdemetan + Luminespib; first compound 4 µM,0.227
